In patent US11667602B2, “Compounds and their use” (AstraZeneca AB, priority 2020, dated 2023):
≈ marks a conversion by molar mass, not a printed value.

Columns and labels:
[1] = Human Liver Microsomal Stability (Test C); type: in vitro ADME; conditions: human, liver microsomes
In short: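 Human liver microsome incubation per the Wernevik et al. integrated DMPK panel protocol. Intrinsic clearance reported as CLint in μl/min/mg protein, averaged arithmetically over repeat runs.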

[2] = Rat Hepatocyte Stability (Test E); type: in vitro ADME; conditions: rat, hepatocytes, geometric mean if run multiple times
In short: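 Run per the published AstraZeneca-type rat hepatocyte stability protocol (Wernevik et al. panel). Values are mean intrinsic clearance, Clint in μl/min/10^6 cells; geometric mean used for repeated runs.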

Solubility (Test F) = type: physicochemical; conditions: arithmetic mean if run multiple times
Method: The assay was conducted according to the Solubility Assay described in pages 164-167 of Wernevik, J. et al., “A Fully Integrated Assay Panel for Early Drug Metabolism and Pharmacokinetics Profiling”, Assay and Drug Development Technologies, 2020, 18(4), 157-179. Data are reported in Table 36 as solubility ([…]. Where the assay was run multiple times for the same compound, the arithmetic mean is reported.

[3] = Human Plasma Protein Binding (Test B); type: in vitro ADME; conditions: fraction unbound (fu)
In short: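 Human plasma protein binding run per the published Wernevik et al. (2020) integrated DMPK panel protocol. Values are fraction unbound (fu, % free); repeat runs averaged arithmetically.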

human RXFP1 = target: T1, human RXFP1 (Homo sapiens, UniProt Q9HBX9); assay: RXFP1 Hu cAMP (Test A); type: cell-based; design: expressed in transfected cells; host or cells: Jump-In T-REx CHO-K1 cells (ThermoFisher), induced with 10 ng/ml doxycycline for 24 h; conditions: RXFP1 Hu cAMP; for EC50: read-out: Test A EC50
T1 sequence (Q9HBX9 1-757): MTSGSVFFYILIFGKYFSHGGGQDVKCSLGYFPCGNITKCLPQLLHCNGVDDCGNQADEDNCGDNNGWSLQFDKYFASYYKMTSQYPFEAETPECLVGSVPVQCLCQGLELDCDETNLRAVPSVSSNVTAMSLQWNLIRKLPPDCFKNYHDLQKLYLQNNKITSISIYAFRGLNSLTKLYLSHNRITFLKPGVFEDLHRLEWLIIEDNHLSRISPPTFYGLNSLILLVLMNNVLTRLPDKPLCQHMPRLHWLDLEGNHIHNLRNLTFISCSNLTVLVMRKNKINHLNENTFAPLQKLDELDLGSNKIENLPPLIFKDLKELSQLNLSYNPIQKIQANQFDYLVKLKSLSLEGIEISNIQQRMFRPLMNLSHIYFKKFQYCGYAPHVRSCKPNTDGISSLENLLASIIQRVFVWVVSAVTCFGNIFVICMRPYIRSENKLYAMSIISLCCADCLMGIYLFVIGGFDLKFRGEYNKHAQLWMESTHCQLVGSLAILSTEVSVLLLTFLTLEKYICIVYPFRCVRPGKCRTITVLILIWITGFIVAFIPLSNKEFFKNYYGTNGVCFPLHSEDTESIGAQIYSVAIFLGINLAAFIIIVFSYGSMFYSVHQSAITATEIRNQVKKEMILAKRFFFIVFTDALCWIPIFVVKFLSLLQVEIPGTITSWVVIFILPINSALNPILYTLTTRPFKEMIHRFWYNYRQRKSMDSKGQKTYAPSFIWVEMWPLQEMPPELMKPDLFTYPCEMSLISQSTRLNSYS
In short: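 Cells: CHO-K1 stably carrying human RXFP1, expressed after 24 h 10 ng/ml doxycycline; 0.5 mM IBMX final, HTRF detection after 2 h at room temperature.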

Compound | microsomal CLint [1] [µL/min/mg] | hepatocyte CLint [2] [µL/min/1e6 cells] | solubility (Solubility (Test F)) [µM] | Test B Human Plasma Protein Binding (% free) [3] [% free] | Test A Sinf (human RXFP1) [%] | EC50 (human RXFP1) [nM]
COc1cc(F)c(-c2ccc(CCC(=O)O)cc2)cc1C(=O)N[C@H]1[C@@H](C(=O)Nc2cccc(S(=O)(=O)C(F)(F)F)c2)[C@@H]2C=C[C@H]1C2 (racemic) [Example 283] | 12 | 15 | 220 (≈ 145 µg/mL) | <0.29 | 87 | 220
COc1cc(C#N)c(O[C@H]2C[C@@]3(C2)C[C@H](C(=O)O)C3)cc1C(=O)N[C@@H]1[C@H]2CC[C@H](C2)[C@@H]1C(=O)NCC1(C)CCC1 (single isomer, unassigned) [Example 6, (2R*,4r,6R)-6-(2-Cyano-4-methoxy-5-(((1S,2R,3S,4R)-3-(((1-methylcyclobutyl)methyl)carbamoyl)bicyclo[2.2.1]heptan-2-yl)carbamoyl)phenoxy)spiro[3.3]heptane-2-carboxylic acid] | 35 | 21 | 820 (≈ 451 µg/mL) | 4.2 | 89 | 720
COc1cc(F)c(O[C@H]2CC[C@@](C)(C(=O)O)CC2)cc1C(=O)Nc1c(C)cc(C)cc1C(=O)NCC1(C)CCC1 [Example 211, (1s,4s)-4-(5-((2,4-Dimethyl-6-(((1-methylcyclobutyl)methyl)carbamoyl)phenyl)carbamoyl)-2-fluoro-4-methoxyphenoxy)-1-methylcyclohexane-1-carboxylic acid] | 5.2 | 12 | 29 (≈ 16.1 µg/mL) | 1.4 | 100 | > 9300
COc1cc(F)c(-c2ccc(CCC(=O)O)cc2)cc1C(=O)N[C@@H]1CCC[C@@H]1C(=O)Nc1cccc(S(=O)(=O)C(F)(F)F)c1 [Example 321] | 33 | 59 | 950 (≈ 605 µg/mL) | 0.45 | 101 | 340
COc1cc(C#N)c(O[C@H]2CC[C@@](C)(C(=O)O)CC2)cc1C(=O)N[C@@H]1[C@H]2CC[C@H](C2)[C@@H]1C(=O)NCC1(O)CCCCCC1 [Example 103] | 11 | 38 | 860 (≈ 512 µg/mL) | 10 | – | > 5000
COc1cc(C#N)c(O[C@H]2CC[C@@](C)(C(=O)O)CC2)cc1C(=O)N[C@@H]1[C@H]2CC[C@H](C2)[C@@H]1C(=O)NCC1(F)CCC1 [Example 94] | 9 | 32 | 830 (≈ 461 µg/mL) | 14 | 111 | > 710
COc1cc(F)c(O[C@H]2CC[C@@H](C(=O)O)CC2)cc1C(=O)N[C@@H]1[C@H]2CC[C@H](C2)[C@@H]1C(=O)Nc1cccc(C(C)(C)C)c1 [Example 189] | 34 | 23 | 83 (≈ 48.2 µg/mL) | 1.5 | 101 | 130
COc1cc(F)c(O[C@H]2CC[C@@H](C(=O)O)CC2)cc1C(=O)N[C@@H]1[C@H]2CC[C@H](C2)[C@@H]1C(=O)Nc1c(F)c(F)c(F)c(F)c1F [Example 16, (1S,4s)-4-(2-Fluoro-4-methoxy-5-(((1S,2R,3S,4R)-3-((perfluorophenyl)carbamoyl)bicyclo[2.2.1]heptan-2-yl)carbamoyl)phenoxy)cyclohexane-1-carboxylic acid] | 9.3 | 49 | 330 (≈ 203 µg/mL) | 2.2 | 93 | 330
COc1cc(F)c(O[C@H]2CC[C@@H](C(=O)O)CC2)cc1C(=O)N[C@@H]1[C@H]2CC[C@H](C2)[C@@H]1C(=O)NC(C)C [Example 8, (1S,4s)-4-(2-Fluoro-5-(((1S,2R,3S,4R)-3-(isopropylcarbamoyl)bicyclo[2.2.1]heptan-2-yl)carbamoyl)-4-methoxyphenoxy)cyclohexane-1-carboxylic acid] | 1.7 | 38 | 980 (≈ 481 µg/mL) | 23 | – | > 50000
COc1cc(F)c(-c2cccc(CCC(=O)O)c2)cc1C(=O)N[C@H]1[C@@H](C(=O)Nc2cccc(S(=O)(=O)C(F)(F)F)c2)[C@@H]2C=C[C@H]1C2 (racemic) [Example 282] | 6.2 | 12 | 48 (≈ 31.7 µg/mL) | <0.25 | 105 | 490
CCC1(CNC(=O)[C@H]2[C@@H]3CC[C@@H](C3)[C@H]2NC(=O)c2cc(O[C@H]3CC[C@@](C)(C(=O)O)CC3)c(C#N)cc2OC)CCC1 [Example 86] | 64 | 26 | 540 (≈ 305 µg/mL) | 4.1 | 115 | 20
COc1cc(F)c(O[C@H]2CC[C@@](C)(C(=O)O)CC2)cc1C(=O)Nc1cc2ccccc2cc1C(=O)NCC1(C)CCC1 [Example 215, (1s,4s)-4-(2-Fluoro-4-methoxy-5-((3-(((1-methylcyclobutyl)methyl)carbamoyl)naphthalen-2-yl)carbamoyl)phenoxy)-1-methylcyclohexane-1-carboxylic acid] | < 3 | 20 | < 0.23 | 0.20 | 143 | 200
COc1cc(C#N)c(O[C@H]2CC[C@@](C)(C(=O)O)CC2)cc1C(=O)N[C@@H]1[C@H]2CC[C@H](C2)[C@@H]1C(=O)NCC1(OC)CCC1 [Example 80] | 8 | 23 | 890 (≈ 505 µg/mL) | 16 | 105 | 410
COc1cc(F)c(-c2cnc(NCC(=O)O)nc2)cc1C(=O)N[C@@H]1[C@H]2CC[C@H](C2)[C@@H]1C(=O)Nc1cccc(S(=O)(=O)C(F)(F)F)c1 [Example 240] | 19 | 12 | 780 (≈ 519 µg/mL) | 2.3 | 97 | 130
COc1cc(C#N)c(O[C@H]2CC[C@@](C)(C(=O)O)CC2)cc1C(=O)N[C@@H]1[C@H]2CC[C@H](C2)[C@@H]1C(=O)NCC1C(C)(C)C1(C)C [Example 84] | 160 | 19 | 340 (≈ 197 µg/mL) | 4 | 112 | 15
